Assay results published in the supplement of paper PMC10307832.

Experiments:
Assay in all cases: relative viability (nuclei count vs DMSO), 5 days (fraction); higher = more cells survive
Serdemetan + Lapatinib = compound: c1ccc2c(CCNc3ccc(Nc4ccncc4)cc3)c[nH]c2c1 [Serdemetan] + CS(=O)(=O)CCNCc1ccc(-c2ccc3ncnc(Nc4ccc(OCc5cccc(F)c5)c(Cl)c4)c3c2)o1 [Lapatinib] (partner 2 µM)
Summary of the method: (§1)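 Lung cancer cell lines were seeded in 1536-well plates and dosed by pin tool the next day, with either a single drug or a fixed anchor-drug dose combined with five library-drug doses (not always all listed) spaced in √10 steps. Five days later, one step fixed the cells and stained their nuclei (final 0.05% Triton X-100, 1% formaldehyde, 1 ug/ml Hoechst), and nuclei were counted on 4× images. Relative viability is the nuclei count in treated wells divided by the count in vehicle wells, and each value is the median of duplicate plates.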

Serdemetan + Pemetrexed = compound: c1ccc2c(CCNc3ccc(Nc4ccncc4)cc3)c[nH]c2c1 [Serdemetan] + Nc1nc2[nH]cc(CCc3ccc(C(=O)N[C@@H](CCC(=O)O)C(=O)O)cc3)c2c(=O)[nH]1 [Pemetrexed] (partner 0.2 µM)
Summary of the method: as §1

Selisistat + Foretinib = compound: C1CC(C2=C(C1)C3=C(N2)C=CC(=C3)Cl)C(=O)N [Selisistat] + COc1cc2c(Oc3ccc(NC(=O)C4(C(=O)Nc5ccc(F)cc5)CC4)cc3F)ccnc2cc1OCCCN1CCOCC1 [Foretinib] (partner 0.25 µM)
Summary of the method: as §1

Serdemetan + OSI-027 = compound: c1ccc2c(CCNc3ccc(Nc4ccncc4)cc3)c[nH]c2c1 [Serdemetan] + COc1cccc2cc(-c3nc([C@H]4CC[C@H](C(=O)O)CC4)n4ncnc(N)c34)[nH]c12 [OSI-027] (partner 0.5 µM)
Summary of the method: as §1

NCI-H23
relative viability (Serdemetan + Lapatinib; first compound 0.04 µM): 1.11 | relative viability (Serdemetan + Lapatinib; first compound 0.1265 µM): 1.19 | relative viability (Serdemetan + Lapatinib; first compound 0.4 µM): 1.13 | relative viability (Serdemetan + Lapatinib; first compound 1.265 µM): 0.818 | relative viability (Serdemetan + Lapatinib; first compound 4 µM): 1.07 | relative viability (Serdemetan + Pemetrexed; first compound 0.04 µM): 0.649 | relative viability (Serdemetan + Pemetrexed; first compound 0.1265 µM): 0.789 | relative viability (Serdemetan + Pemetrexed; first compound 0.4 µM): 0.722 | relative viability (Serdemetan + Pemetrexed; first compound 4 µM): 0.763 | relative viability (Selisistat + Foretinib; first compound 0.4 µM): 0.579 | relative viability (Selisistat + Foretinib; first compound 1.265 µM): 0.779 | relative viability (Selisistat + Foretinib; first compound 4 µM): 0.805 | relative viability (Selisistat + Foretinib; first compound 12.65 µM): 0.935 | relative viability (Selisistat + Foretinib; first compound 40 µM): 0.565 | relative viability (Serdemetan + OSI-027; first compound 0.04 µM): 0.636 | relative viability (Serdemetan + OSI-027; first compound 0.1265 µM): 0.702 | relative viability (Serdemetan + OSI-027; first compound 0.4 µM): 0.607 | relative viability (Serdemetan + OSI-027; first compound 1.265 µM): 0.43 | relative viability (Serdemetan + OSI-027; first compound 4 µM): 0.531

NCI-H322M
relative viability (Serdemetan + Lapatinib; first compound 0.04 µM): 0.577 | relative viability (Serdemetan + Lapatinib; first compound 0.1265 µM): 0.585 | relative viability (Serdemetan + Lapatinib; first compound 0.4 µM): 0.546 | relative viability (Serdemetan + Lapatinib; first compound 1.265 µM): 0.546 | relative viability (Serdemetan + Lapatinib; first compound 4 µM): 0.562 | relative viability (Serdemetan + Pemetrexed; first compound 0.04 µM): 0.576 | relative viability (Serdemetan + Pemetrexed; first compound 0.1265 µM): 0.583 | relative viability (Serdemetan + Pemetrexed; first compound 0.4 µM): 0.622 | relative viability (Serdemetan + Pemetrexed; first compound 1.265 µM): 0.645 | relative viability (Serdemetan + Pemetrexed; first compound 4 µM): 0.628 | relative viability (Selisistat + Foretinib; first compound 0.4 µM): 0.953 | relative viability (Selisistat + Foretinib; first compound 1.265 µM): 1.01 | relative viability (Selisistat + Foretinib; first compound 4 µM): 0.884 | relative viability (Selisistat + Foretinib; first compound 12.65 µM): 1.13 | relative viability (Selisistat + Foretinib; first compound 40 µM): 1.11 | relative viability (Serdemetan + OSI-027; first compound 0.04 µM): 0.52 | relative viability (Serdemetan + OSI-027; first compound 0.1265 µM): 0.56 | relative viability (Serdemetan + OSI-027; first compound 0.4 µM): 0.681 | relative viability (Serdemetan + OSI-027; first compound 1.265 µM): 0.509 | relative viability (Serdemetan + OSI-027; first compound 4 µM): 0.422

NCI-H358
relative viability (Serdemetan + Lapatinib; first compound 0.04 µM): 0.42 | relative viability (Serdemetan + Lapatinib; first compound 0.1265 µM): 0.509 | relative viability (Serdemetan + Lapatinib; first compound 0.4 µM): 0.439 | relative viability (Serdemetan + Lapatinib; first compound 1.265 µM): 0.558 | relative viability (Serdemetan + Lapatinib; first compound 4 µM): 0.405 | relative viability (Serdemetan + Pemetrexed; first compound 0.04 µM): 0.173 | relative viability (Serdemetan + Pemetrexed; first compound 0.1265 µM): 0.155 | relative viability (Serdemetan + Pemetrexed; first compound 0.4 µM): 0.18 | relative viability (Serdemetan + Pemetrexed; first compound 1.265 µM): 0.148 | relative viability (Serdemetan + Pemetrexed; first compound 4 µM): 0.163 | relative viability (Selisistat + Foretinib; first compound 0.4 µM): 0.808 | relative viability (Selisistat + Foretinib; first compound 1.265 µM): 0.763 | relative viability (Selisistat + Foretinib; first compound 4 µM): 0.553 | relative viability (Selisistat + Foretinib; first compound 12.65 µM): 0.727 | relative viability (Selisistat + Foretinib; first compound 40 µM): 0.833 | relative viability (Serdemetan + OSI-027; first compound 0.04 µM): 0.725 | relative viability (Serdemetan + OSI-027; first compound 0.1265 µM): 0.816 | relative viability (Serdemetan + OSI-027; first compound 0.4 µM): 0.969 | relative viability (Serdemetan + OSI-027; first compound 1.265 µM): 0.487 | relative viability (Serdemetan + OSI-027; first compound 4 µM): 0.536

NCI-H460
relative viability (Serdemetan + Lapatinib; first compound 0.04 µM): 0.878 | relative viability (Serdemetan + Lapatinib; first compound 0.1265 µM): 0.936 | relative viability (Serdemetan + Lapatinib; first compound 0.4 µM): 0.866 | relative viability (Serdemetan + Lapatinib; first compound 1.265 µM): 0.659 | relative viability (Serdemetan + Lapatinib; first compound 4 µM): 0.132 | relative viability (Serdemetan + Pemetrexed; first compound 0.04 µM): 0.0612 | relative viability (Serdemetan + Pemetrexed; first compound 0.1265 µM): 0.0565 | relative viability (Serdemetan + Pemetrexed; first compound 0.4 µM): 0.0655 | relative viability (Serdemetan + Pemetrexed; first compound 1.265 µM): 0.0326 | relative viability (Serdemetan + Pemetrexed; first compound 4 µM): 0.064 | relative viability (Selisistat + Foretinib; first compound 0.4 µM): 1.01 | relative viability (Selisistat + Foretinib; first compound 1.265 µM): 0.969 | relative viability (Selisistat + Foretinib; first compound 4 µM): 0.967 | relative viability (Selisistat + Foretinib; first compound 12.65 µM): 1.01 | relative viability (Selisistat + Foretinib; first compound 40 µM): 1.05 | relative viability (Serdemetan + OSI-027; first compound 0.04 µM): 0.61 | relative viability (Serdemetan + OSI-027; first compound 0.1265 µM): 0.691 | relative viability (Serdemetan + OSI-027; first compound 0.4 µM): 0.641 | relative viability (Serdemetan + OSI-027; first compound 1.265 µM): 0.342 | relative viability (Serdemetan + OSI-027; first compound 4 µM): 0.0861

NCI-H520
relative viability (Serdemetan + Lapatinib; first compound 0.04 µM): 0.791 | relative viability (Serdemetan + Lapatinib; first compound 0.1265 µM): 0.91 | relative viability (Serdemetan + Lapatinib; first compound 0.4 µM): 0.813 | relative viability (Serdemetan + Lapatinib; first compound 1.265 µM): 0.813 | relative viability (Serdemetan + Lapatinib; first compound 4 µM): 0.614 | relative viability (Serdemetan + Pemetrexed; first compound 0.04 µM): 0.712 | relative viability (Serdemetan + Pemetrexed; first compound 0.1265 µM): 0.68 | relative viability (Serdemetan + Pemetrexed; first compound 0.4 µM): 0.753 | relative viability (Serdemetan + Pemetrexed; first compound 1.265 µM): 0.674 | relative viability (Serdemetan + Pemetrexed; first compound 4 µM): 0.542 | relative viability (Selisistat + Foretinib; first compound 0.4 µM): 0.691 | relative viability (Selisistat + Foretinib; first compound 1.265 µM): 0.699 | relative viability (Selisistat + Foretinib; first compound 4 µM): 0.715 | relative viability (Selisistat + Foretinib; first compound 12.65 µM): 0.801 | relative viability (Selisistat + Foretinib; first compound 40 µM): 0.746 | relative viability (Serdemetan + OSI-027; first compound 0.04 µM): 0.283 | relative viability (Serdemetan + OSI-027; first compound 0.1265 µM): 0.273 | relative viability (Serdemetan + OSI-027; first compound 0.4 µM): 0.297 | relative viability (Serdemetan + OSI-027; first compound 4 µM): 0.293

NCI-H596
relative viability (Serdemetan + Lapatinib; first compound 0.04 µM): 1.07 | relative viability (Serdemetan + Lapatinib; first compound 0.1265 µM): 0.972 | relative viability (Serdemetan + Lapatinib; first compound 0.4 µM): 1.09 | relative viability (Serdemetan + Lapatinib; first compound 1.265 µM): 0.871 | relative viability (Serdemetan + Lapatinib; first compound 4 µM): 0.666 | relative viability (Serdemetan + Pemetrexed; first compound 0.04 µM): 0.45 | relative viability (Serdemetan + Pemetrexed; first compound 0.1265 µM): 0.486 | relative viability (Serdemetan + Pemetrexed; first compound 0.4 µM): 0.515 | relative viability (Serdemetan + Pemetrexed; first compound 1.265 µM): 0.463 | relative viability (Serdemetan + Pemetrexed; first compound 4 µM): 0.492 | relative viability (Selisistat + Foretinib; first compound 0.4 µM): 1.09 | relative viability (Selisistat + Foretinib; first compound 1.265 µM): 0.693 | relative viability (Selisistat + Foretinib; first compound 4 µM): 0.846 | relative viability (Selisistat + Foretinib; first compound 12.65 µM): 0.89 | relative viability (Selisistat + Foretinib; first compound 40 µM): 0.585 | relative viability (Serdemetan + OSI-027; first compound 0.04 µM): 0.888 | relative viability (Serdemetan + OSI-027; first compound 0.1265 µM): 0.699 | relative viability (Serdemetan + OSI-027; first compound 0.4 µM): 0.614 | relative viability (Serdemetan + OSI-027; first compound 1.265 µM): 0.494 | relative viability (Serdemetan + OSI-027; first compound 4 µM): 0.519

NCI-H647
relative viability (Serdemetan + Lapatinib; first compound 0.04 µM): 1.06 | relative viability (Serdemetan + Lapatinib; first compound 0.1265 µM): 1.11 | relative viability (Serdemetan + Lapatinib; first compound 0.4 µM): 1.1 | relative viability (Serdemetan + Lapatinib; first compound 1.265 µM): 0.669 | relative viability (Serdemetan + Lapatinib; first compound 4 µM): 0.475 | relative viability (Serdemetan + Pemetrexed; first compound 0.04 µM): 0.164 | relative viability (Serdemetan + Pemetrexed; first compound 0.1265 µM): 0.172 | relative viability (Serdemetan + Pemetrexed; first compound 0.4 µM): 0.175 | relative viability (Serdemetan + Pemetrexed; first compound 1.265 µM): 0.179 | relative viability (Serdemetan + Pemetrexed; first compound 4 µM): 0.137 | relative viability (Selisistat + Foretinib; first compound 0.4 µM): 1.18 | relative viability (Selisistat + Foretinib; first compound 1.265 µM): 1.13 | relative viability (Selisistat + Foretinib; first compound 4 µM): 1.19 | relative viability (Selisistat + Foretinib; first compound 12.65 µM): 1.16 | relative viability (Selisistat + Foretinib; first compound 40 µM): 1.25 | relative viability (Serdemetan + OSI-027; first compound 0.04 µM): 0.609 | relative viability (Serdemetan + OSI-027; first compound 0.1265 µM): 0.634 | relative viability (Serdemetan + OSI-027; first compound 0.4 µM): 0.751 | relative viability (Serdemetan + OSI-027; first compound 1.265 µM): 0.585 | relative viability (Serdemetan + OSI-027; first compound 4 µM): 0.648

NCI-H650
relative viability (Serdemetan + Lapatinib; first compound 0.04 µM): 0.779 | relative viability (Serdemetan + Lapatinib; first compound 0.1265 µM): 0.844 | relative viability (Serdemetan + Lapatinib; first compound 0.4 µM): 1.05 | relative viability (Serdemetan + Lapatinib; first compound 1.265 µM): 0.667 | relative viability (Serdemetan + Lapatinib; first compound 4 µM): 0.669 | relative viability (Serdemetan + Pemetrexed; first compound 0.04 µM): 0.895 | relative viability (Serdemetan + Pemetrexed; first compound 0.1265 µM): 0.903 | relative viability (Serdemetan + Pemetrexed; first compound 0.4 µM): 0.992 | relative viability (Serdemetan + Pemetrexed; first compound 1.265 µM): 0.812 | relative viability (Serdemetan + Pemetrexed; first compound 4 µM): 0.87 | relative viability (Selisistat + Foretinib; first compound 0.4 µM): 1.02 | relative viability (Selisistat + Foretinib; first compound 1.265 µM): 1.03 | relative viability (Selisistat + Foretinib; first compound 4 µM): 1.24 | relative viability (Selisistat + Foretinib; first compound 12.65 µM): 0.98 | relative viability (Selisistat + Foretinib; first compound 40 µM): 0.992 | relative viability (Serdemetan + OSI-027; first compound 0.04 µM): 0.471 | relative viability (Serdemetan + OSI-027; first compound 0.1265 µM): 0.502 | relative viability (Serdemetan + OSI-027; first compound 0.4 µM): 0.578 | relative viability (Serdemetan + OSI-027; first compound 1.265 µM): 0.456 | relative viability (Serdemetan + OSI-027; first compound 4 µM): 0.584
